Measured values taken from US4145444A, “Anti-inflammatory agent of benzoyl derivative” (priority 1977, dated 1979).

How the values were obtained:
hind paws of male rats = assay: Anti-inflammatory effect: acute carragheenin edema method; format: in vivo; conditions: Rattus norvegicus; 100 mg/kg oral, carragheenin edema, male rats (Table 2); read-out: Anti-inf.: edema inhibition rate
Procedure: The edema was induced by subcutaneous injection of 1% carragheenin suspension in saline to the hind paws of male rats weighting 150 to 180 g. Each sample was orally given at the dosage of 100 mg/kg just before the inoculation of carragheenin.

platelet = assay: Blood platelet aggregation inhibiting effect (collagen-induced); format: cell-based, rabbits; conditions: Oryctolagus cuniculus, Platelet; 10^-4 mole, collagen inducer, rabbit PRP; read-out: Blood platelet agg. inh.: percentage inhibition of platelet aggregation
Text: Male rabbits (Japan original white strain 3.3 to 3.6 kg) were anesthetized with Thiopental sodium and blood was sampled from the carotid artery.

thrombus = assay: Inhibiting effect on thrombosis (by-pass between left juglar vein and right carotid artery, silk thread); format: in vivo, SD type male rates; conditions: Rattus norvegicus; 100 mg/kg oral, 5 hours before first blood circulation, rats; read-out: Thrombosis inh.: thrombosis inhibition rate
Procedure: The inhibiting effects of the samples of the invention on thrombosis were tested by the following test method.
A 0.5 ml of 50 μ/ml of the heparin physiological saline was added through the polyethylene tube before the first blood circulation. After the blood circulation for 15 minutes, the circulation was stopped in the middle of the tubing at artery side with a pinch cock.
Then, 0.2 ml of the heparin physiological saline was added to remove the blood coagulates on the tubing wall and another new polyethylene tubing filled with the heparin solution and containing a piece of new silk thread was attached between the venous and artery tubing ends.
The blood circulation was reestablished by opening the pinch cock. After 15 minutes, the wet weight of thrombus on the silk thread was similarly measured.
In the same manner, the third circulation was performed and wet weight of thrombus measured.
The amount of thrombus was given by the equation A. [formula] Each sample was suspended in an aqueous solution of sodium carboxymethyl cellulose and the oral dose of the suspension (100 mg/kg) was performed at 5 hours before the first blood circulation.
The amount of thrombus after the oral dose of the sample was calculated in the same manner as that of control circulations.
The thrombosis inhibition rate was given by the equation B. [formula]

male mice = assay: Analgesic effect: painful stretchings following intraperitoneal 0.7% acetic acid; conditions: Mus musculus, po, read-out: Analgesic: percentage diminition of times of painful stretching
Procedure: Each sample was orally administered in the dosage of 100 mg/kg before injection of acetic acid.

SMILES	inhibition in vivo at 100 mg/kg (hind paws of male rats)	inhibition at 100 µM (platelet)	inhibition in vivo at 100 mg/kg (thrombus)	inhibition in vivo at 100 mg/kg (male mice)
CCCCCCCCc1ccc(C(=O)c2ccccc2)cc1 [compound 26]	47.2%	3.1%	24.8%	35.9%
CCCCCc1ccc(C(=O)c2ccccc2F)cc1 [compound 9]	74.6%	14.6%	25.3%	15.3%
CCCCCCOc1ccc(C(=O)Cc2ccc(Cl)cc2)cc1 [compound 62]	12.5%	12.3%	7.8%	10.2%
CC(C)Cc1ccc(C(=O)c2ccccc2)cc1 [compound 67]	20%	18.5%	17.3%	19.1%
CCCCCCCCCCCCc1ccc(C(=O)c2ccccc2)cc1 [compound 69]	12%	13.5%	12.7%	6.7%
CCCCc1ccc(C(=O)c2ccc(OC)cc2)cc1 [compound 18]	41.6%	9.3%	24.2%	20.1%
Cc1cc(C)c(C(=O)c2ccccc2F)c(C)c1 [compound 11]	62.3%	16.5%	42.9%	13.9%
CCCCCCc1ccc(C(=O)C(=O)c2ccccc2)cc1 [compound 56]	14.9%	20.3%	15.1%	20.5%
CCCCc1ccc(C(=O)c2ccc(CCC)cc2)cc1 [compound 98]	31.9%	28.3%	35.4%	16.4%
CCCCCOc1ccc(C(=O)Cc2ccccc2)cc1 [compound 59]	20.7%	25.6%	14.1%	22.8%
CCCCCc1ccc(C(=O)c2ccc(O)cc2)cc1 [compound 105]	33.6%	24.1%	31.4%	14.1%
CCCc1ccc(C(=O)c2ccccc2C)cc1 [compound 90]	19.7%	10.8%	15%	13.7%
CCCc1ccc(C(=O)c2ccccc2)cc1 [compound 20]	42.7%	36.6%	4.1%	17.3%
CCCCCCCc1ccc(C(=O)c2ccc(CCCC)cc2)cc1 [compound 100]	14%	22.4%	27.6%	10%
CCCCc1ccc(C(=O)c2ccccc2Cl)cc1 [compound 44]	57.7%	10.5%	35.6%	15.6%
Cc1ccc(C(=O)c2ccc(C)cc2)cc1 [compound 83]	20%	27.6%	19.3%	12.1%
CCCCc1ccc(CCCC)c(C(=O)c2ccc(C)cc2)c1 [compound 17]	36.3%	17.3%	19.5%	10.3%
CCCCOc1ccc(C(=O)c2c(C)cc(C)cc2C)cc1 [compound 94]	26.6%	27.9%	37.4%	15.8%
